In patent US20130012404A1, “CULTURE METHOD, EVALUATION METHOD AND STORAGE METHOD FOR CANCER-TISSUE-DERIVED CELL MASS OR AGGREGATED CANCER CELL MASS” (Osaka Prefectural Hospital Organization, priority 2010, published 2013):

Key:
[1] = system: cell mass derived from the cancer tissue (surgical specimens of human colon cancer, Example 2); experiment: Drug sensitivity test with 5-FU on cancer tissue-derived cell masses embedded in collagen gel; type: cell-based; details: 5-FU 0.01, 0.1, 1, 10 and 100 μg/ml; day 8 after culture vs day 0; FIG. 4
Method: Using 5-FU which is known to inhibit DNA synthesis by binding to a thymidylic acid synthetase involved in the metabolism process necessary for DNA synthesis, a drug sensitivity test on a sample of Example 2 was carried out. The test was carried out by embedding the cell masses (×10 each) derived from the cancer tissue in a collagen gel (CellMatrix type IA (Nitta Gelatin Inc.):5×DMEM (Gibco; 12100-038):buffer solution for gel reconstruction (50 mM NaOH, 260 mM NaHCO3, 200 mM HEPES)=7:2:1), and culturing in 1 cc of STEMPRO serum-free medium (Gibco) for human ES cells in an incubator under the culture conditions of 37° C. and 5% CO2. In addition, 5-FU was applied at a concentration of 0.01 μg/ml, 0.1 μg/ml, 1 μg/ml, 10 μg/ml, and 100 μg/ml, and the states of the cells on days 0 and 8 after culture were compared for evaluation. An increasing rate of the area of the cell mass derived from the cancer tissue was expressed relative to 1 of an increasing rate of the area of the cell mass in the culture without application of a drug.

[2] = system: aggregated cancer cell mass; experiment: Drug sensitivity test with doxorubicin on aggregated cancer cell masses embedded in collagen gel; type: cell-based; details: doxorubicin 0.1, 1 and 10 μM; day 8 after culture initiation vs day 0; FIG. 14
Method: Using doxorubicin that is known to exert an antitumor effect by suppressing the biosynthesis of both DNA and RNA as a result of inhibiting the reaction of DNA polymerase, RNA polymerase, and topoisomerase II due to the insertion of doxorubicin between the base pairs of DNA of tumor cells, a drug sensitivity test was carried out by the sample of Example 12. The test was carried out by embedding the aggregated cancer cell mass (×10 each) in collagen gel (CellMatrix type IA (Nitta Gelatin):5×DMEM (Gibco; 12100-038):buffer solution for gel reconstruction (50 mM NaOH, 260 mM NaHCO3, 200 mM HEPES)=7:2:1) and carrying out culture in 1 cc of a STEMPRO human ES cell serum-free medium (Gibco) under the culture conditions of a temperature of 37° C. in 5% CO2 incubator. In addition, doxorubicin was applied at a concentration of 0.1 μM, 1 μM, and 10 μM, and the states on day 0 and on day […] were compared for evaluation. An increasing rate of the area of the aggregated cancer cell mass was relatively expressed when an increasing rate of the area of the cell mass in the culture without application of a drug was determined to be 1.

| SMILES | proliferation of the cancer cell (increasing rate of the area of the cell mass relative to 1 without drug) [1] | proliferation of the cancer cell (increasing rate of the area of the aggregated cancer cell mass relative to 1 without drug) [2] |
| --- | --- | --- |
| O=c1[nH]cc(F)c(=O)[nH]1 [5-FU] | concentration-dependently suppressed | – |
| COc1cccc2c1C(=O)c1c(O)c3c(c(O)c1C2=O)C[C@@](O)(C(=O)CO)C[C@@H]3O[C@H]1C[C@H](N)[C@H](O)[C@H](C)O1 [doxorubicin] | – | concentration-dependently suppressed |
